pEC50, pIC50: −log10 of the molar value. Where only a bound is given, the exact number is not on record here.

Assay type in all cases: functional
For experiment [1], the species on record is Rattus norvegicus. Briefly: In vitro concentration required to produce 50% relaxation of rat detrusor.
The test system of experiment [2] is Rattus norvegicus. As to the kind of experiment: In vivo dose required to lower the intrabladder pressure of the anesthetized rat by 50% over that before compound administration.
Experiment [3] deals with Beta-1 adrenergic receptor (Rattus norvegicus) (UniProt P18090). As to the kind of experiment: Increase in BPM in isolated rat atria.
Beta-1 adrenergic receptor (Rattus norvegicus), sequence (P18090 whole entry, looked up): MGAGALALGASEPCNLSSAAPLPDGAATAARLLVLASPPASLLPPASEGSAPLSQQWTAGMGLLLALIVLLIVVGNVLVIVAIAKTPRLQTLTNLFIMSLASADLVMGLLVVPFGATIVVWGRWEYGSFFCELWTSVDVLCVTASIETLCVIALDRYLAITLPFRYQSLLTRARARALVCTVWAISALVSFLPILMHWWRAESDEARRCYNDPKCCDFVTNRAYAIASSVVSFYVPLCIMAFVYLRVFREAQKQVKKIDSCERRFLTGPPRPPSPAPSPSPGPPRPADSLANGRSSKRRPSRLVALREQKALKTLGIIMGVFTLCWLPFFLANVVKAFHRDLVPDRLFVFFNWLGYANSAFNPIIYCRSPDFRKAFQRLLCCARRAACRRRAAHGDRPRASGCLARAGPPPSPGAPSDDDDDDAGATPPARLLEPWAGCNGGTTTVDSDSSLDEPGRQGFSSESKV
For a further experiment, the species on record is Mustela putorius furo. Briefly: In vitro concentration required to produce 50% relaxation of ferret detrusor.
The nature of experiment [4]: Concentration ratio of beta-2 (EC50) to beta3 (EC50).
Experiment [5] can be described thus: Concentration ratio of beta-1 (EC50) to beta3 (EC50).
The target in experiment [6] is Beta-2 adrenergic receptor (Rattus norvegicus, UniProt P10608). As to the kind of experiment: Agonistic activity towards beta-2 adrenoceptor. Mean concentration required to produce 50% inhibition of uterine contraction.
Beta-2 adrenergic receptor, sequence (P10608 whole entry): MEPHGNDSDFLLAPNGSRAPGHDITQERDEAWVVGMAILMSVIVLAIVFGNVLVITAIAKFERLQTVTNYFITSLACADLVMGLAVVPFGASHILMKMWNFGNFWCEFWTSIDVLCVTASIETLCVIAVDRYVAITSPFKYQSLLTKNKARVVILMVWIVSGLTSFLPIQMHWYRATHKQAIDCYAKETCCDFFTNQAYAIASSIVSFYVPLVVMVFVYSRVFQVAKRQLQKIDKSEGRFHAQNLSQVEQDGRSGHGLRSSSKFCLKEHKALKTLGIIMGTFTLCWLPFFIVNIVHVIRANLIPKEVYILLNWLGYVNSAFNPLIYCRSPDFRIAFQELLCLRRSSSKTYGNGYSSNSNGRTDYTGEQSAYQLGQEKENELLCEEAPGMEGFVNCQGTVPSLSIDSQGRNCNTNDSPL
Experiment [7] in a line: Concentration ratio of beta-1 (EC50) to beta-3 (EC50).
Experiment [8] can be described thus: Concentration ratio of beta2 (EC50) to […].

Take `CC(C)NCC(O)c1ccc(O)c(O)c1` (configuration not stated) [ISOPROTERENOL]: the pEC50 (usually −log10 of the EC50, conventionally taken in molar units) in the experiment filed under Rattus norvegicus [1] was 8.00. It took a dose of 0.0006 mg/kg to reach the 50% effect level in the experiment with Rattus norvegicus [2] (ED50).
For `C[C@H](NCCc1cc(Cl)c(NCC(=O)O)c(Cl)c1)[C@H](O)c1ccc(O)cc1`, the figures for the pEC50 in the experiment listed under Rattus norvegicus [1] and in the experiment filed under Mustela putorius furo were 6.72 and 7.85, respectively. This compound had a -Log EC20 in experiment [3] of 4.54. Further, the Selectivity in experiment [4] came to 1000; in experiment [5] it was 2070. It took a dose of 0.048 mg/kg to reach the 50% effect level with Rattus norvegicus [2] (ED50). Moreover, in [6], the pIC50 (as a rule, −log10 of the IC50, conventionally taken in molar units) is 4.85.
The compound `C[C@H](NCCc1ccc(NCC(=O)O)c(Br)c1)[C@H](O)c1ccc(O)cc1` came in with a -Log EC20 in experiment [3] of 5.1. Further, the figures for the Selectivity in experiment [4] and in experiment [5] were 2.5 and 14, respectively. This compound also showed a pIC50 in [6] of 5.85.
`C[C@H](Cc1ccc(OCC(=O)O)cc1)NC[C@H](O)c1cccc(Cl)c1`: in [6], the pIC50 was 8.04.
As for `C[C@H](NCCc1ccc(NCC(=O)O)c(I)c1)[C@H](O)c1ccc(O)cc1`, the -Log EC20 in experiment [3] was 5.27. Further, the figures for the Selectivity in experiment [4] and in experiment [5] were 2.7 and 6.6, respectively. This compound also had a pIC50 in experiment [6] of 5.66.
As to `C[C@H](NCCc1ccc(N(C)CC(=O)O)c(Cl)c1)[C@H](O)c1ccc(O)cc1`, the -Log EC20 in experiment [3] worked out at 4.6. The Selectivity is over 9090 in experiment [4] and 2270 in experiment [5]. Also, in [6], the “-Log IC50” value is given as over 4.
With `C[C@H](NCCc1ccc(NCC(=O)O)c(Cl)c1Cl)[C@H](O)c1ccc(O)cc1`, in experiment [3], the -Log EC20 amounted to 6.82. Further, the results for the Selectivity in experiment [4] and in experiment [5] were 3.7 and 0.33, respectively. In addition, the pIC50 in [6] was 5.77.
As for `C[C@H](NCCc1ccc(N(CC(=O)O)CC(=O)O)cc1)[C@H](O)c1ccc(O)cc1`, the -Log EC20 in experiment [3] stood at 4.57. The compound also had a pIC50 in [6] of 6.55.
`C[C@H](NCCc1ccc(N(CC(=O)O)Cc2ccccc2)cc1)[C@H](O)c1ccc(O)cc1` displayed a -Log EC20 in [3] of 6.82. Moreover, in experiment [6], the pIC50 was 6.60.
On to `CC(NCCc1ccc(O)cc1)C(O)c1ccc(O)cc1` (configuration not stated) [RITODRINE], for which the -Log EC20 in experiment [3] was determined as 6.8. For the same compound, in [6], the pIC50 is 7.62.
`C[C@H](NCCc1ccc(N(C)CC(=O)O)cc1)[C@H](O)c1ccc(O)cc1` returned a -Log EC20 in experiment [3] of 5.47. In addition, the figures for the Selectivity in [4] and in experiment [5] were 31 and 65, respectively. Moreover, the pIC50 in [6] is 5.80.
Take `C[C@H](NCCc1ccc(NC(C)(C)C(=O)O)cc1Cl)[C@H](O)c1ccc(O)cc1`: in [3], the -Log EC20 is 6.59. In addition, the Selectivity in experiment [4] was determined as 250; in experiment [7], 46. In addition, in experiment [6], the pIC50 was 5.85.
Turning to `C[C@H](NCCc1ccc(NCC(=O)O)c(Cl)c1)[C@H](O)c1ccc(O)cc1`, the Selectivity in [8] is 3550; in [5], 2900. Further, in experiment [3], the -Log EC20 stood at 5.57. The compound further had a pIC50 in experiment [6] of 5.48.
The compound `C[C@H](NCCc1cc(Br)c(NCC(=O)O)c(Br)c1)[C@H](O)c1ccc(O)cc1` showed a -Log EC20 in experiment [3] of 4.72. Moreover, the figures for the Selectivity in experiment [4] and in [5] were 32 and 235, respectively. In addition, the pIC50 in [6] was 5.59.
With `C[C@H](NCCc1ccc(NCC(=O)O)cc1Cl)[C@H](O)c1ccc(O)cc1`, the -Log EC20 in experiment [3] came to 6.96. The Selectivity turned out to be 8.6 in experiment [4] and 15 in experiment [5]. Moreover, in experiment [6], the pIC50 is 7.21.
For `C[C@H](NCCc1cc(Cl)c(N(C)CC(=O)O)c(Cl)c1)[C@H](O)c1ccc(O)cc1`, the -Log EC20 in experiment [3] was over 4. Also, the Selectivity in experiment [4] and in experiment [5] was over 625 in each case. Also, in experiment [6], the “-Log IC50” value is over 4.
`C[C@H](NCCc1ccc(NC(C)(C)C(=O)O)cc1)[C@H](O)c1ccc(O)cc1` had a -Log EC20 in [3] of 4.96. Further, the pIC50 in experiment [6] is 4.96.
Turning to `C[C@H](Cc1ccc2c(c1)OC(C(=O)O)(C(=O)O)O2)NC[C@H](O)c1cccc(Cl)c1`, the -Log EC20 in [3] stood at 4.77.
In the case of `C[C@H](NCCc1cc(Cl)c(NCC(=O)O)cc1Cl)[C@H](O)c1ccc(O)cc1`, the -Log EC20 in experiment [3] turned out to be 5.89. In addition, the Selectivity in experiment [4] and in experiment [5] was 21 throughout. In [6], this compound had a pIC50 of 5.89.
With `C[C@H](NCCc1ccc(NCC(=O)O)cc1)[C@H](O)c1ccc(O)cc1`, the -Log EC20 in [3] was found to be 5.89. The Selectivity in [4] is 27; in experiment [5], 54. The pIC50 in experiment [6] is 6.19.
